Values joined by “and” are separate entries in the source; they are usually repeats but may differ in a detail not shown here. Identical values can stand only once. “Also recorded” adds a separate entry of the source.
Key:
[1] = Evaluation of food intake and body weight, oral gavage for 5 days; format: in vivo, female Sprague-Dawley rats
Experimental: Female female Sprague-Dawley rats were used for all experiments. Rats were housed in a temperature-controlled room (22±1° C.) under a 12-h light (6:00-18:00)/12-h cycle, given free access to water, and fed an libitum on a standard chow unless otherwise stated for a high-fat diet experiment. All procedures using animals were approved by the local ethics committee and followed the guidelines for experiments in animals (European Economic Community Council Directive 86/609/EEC).
For measurement of food consumption rats were individually housed in cage and given a high-fat diet for a week before the beginning of the experiment. […] Rat with as libitum access to high-fat food were orally given dimethylaminoethyl dodecyl ether (37.5 or 50 μl dissolved in 1% methycellulose) through a gastric gavage or 1% methyl cellulose at the onset of the dark cycle (18:00) and food intake was measured at 15 h following dimethylaminoethyl dodecyl ether administration from pre-weighed portions of food dispensed from were cage top. Cages were carefully monitored for evidence of food spillage or grinding.

[2] = In vivo Intralipid feeding test: free fatty acids and triglycerides in blood serum; parameters: species or system Sprague-Dawley rats
Experimental: Sprague-Dawley rats weighing 200-220 g, stored in cages using a 12 hours of light/12 hours of darkness cycle were used. They had free admittance to food and water prior to the test. The day prior a test the rats were fasted, and were anaesthetised in the morning using diethyl ether. 1 ml of Intralipid (200 mg/ml) with and without inhibitor was fed to the rats by means of a syringe through the mouth and ending in the stomach. Blood samples were taken at time 0, prior to the test start, and then after 30, 60, 120 and 180 minutes after feeding with Intralipid. After centrifugation, serum was separated and stored at −20° C. for analysis. Analyses of free fatty acids, triglycerides and total cholesterol were made. The test has been repeated, also using different dosages of the inhibitors tested.

CCCCCCCCCCCCOCCN(C)C [dimethylaminoethyl dodecyl ether]
Food intake vs vehicle ([1]; rats fed high-fat diet, 25 μl orally): no food intake inhibition | Food intake vs vehicle ([1]; rats fed high-fat diet, 37.5 μl by gastric gavage): a trend towards reduced food intake was observed, however this did not reach statistic significance | Food intake vs vehicle ([1]; rats fed high-fat diet, 50 μl by gastric gavage, up to 5 days): highly significant reduction in food intake; also recorded: significantly inhibited | Body weight vs non-treated group ([1]; rats fed high-fat diet, 50 μl daily for 5 days): decreased body weight; also recorded: significantly loss of body weight | Food intake vs controls ([1]; rats fed low-fat diet, 37.5 and 50 μl, 5 testing days): failed to decrease food intake | Triglycerides ([2]; rat blood serum, 0 min (prior to Intralipid feeding)): 103 mg/dL | Free fatty acids ([2]; rat blood serum, 0 min (prior to Intralipid feeding), listed as Compound C12): 0.56 mmol and 0.57 mmol | Triglycerides ([2]; rat blood serum, 30 min after 1 ml Intralipid with inhibitor): 95 mg/dL | Free fatty acids ([2]; rat blood serum, 30 min after 1 ml Intralipid with inhibitor, listed as Compound C12): 0.63 mmol and 0.67 mmol | Triglycerides ([2]; rat blood serum, 60 min after 1 ml Intralipid with inhibitor): 98 mg/dL | Free fatty acids ([2]; rat blood serum, 60 min after 1 ml Intralipid with inhibitor, listed as Compound C12): 0.70 mmol and 0.72 mmol | Triglycerides ([2]; rat blood serum, 120 min after 1 ml Intralipid with inhibitor): 95 mg/dL | Free fatty acids ([2]; rat blood serum, 120 min after 1 ml Intralipid with inhibitor, listed as Compound C12): 0.60 mmol and 0.72 mmol | Triglycerides ([2]; rat blood serum, 180 min after 1 ml Intralipid with inhibitor): 77 mg/dL | Free fatty acids ([2]; rat blood serum, 180 min after 1 ml Intralipid with inhibitor, listed as Compound C12): 0.62 mmol and 0.74 mmol | Free fatty acids (% of control) ([2]; rat, dose of active compound 10 μg): 83.7 % of control | Free fatty acids ([2]; rat, dose of active compound 10 μg, dose 0: 1.45): 1.25 mM | Free fatty acids (% of control) ([2]; rat, dose of active compound 50 μg): 56.1 % of control | Free fatty acids ([2]; rat, dose of active compound 50 μg, dose 0: 1.45): 0.83 mM | Free fatty acids (% of control) ([2]; rat, dose of active compound 100 μg): 57.4 % of control | Free fatty acids ([2]; rat, dose of active compound 100 μg, dose 0: 1.45): 0.85 mM | Free fatty acids (% of control) ([2]; rat, dose of active compound 200 μg): 74.3 % of control | Free fatty acids ([2]; rat, dose of active compound 200 μg, dose 0: 1.45): 1.1 mM

From patent US7425577B2, “Lipase-colipase inhibitor” (Forskarpatent 1 SYD AB, priority 2003, dated 2008)
